According to patent publication US10828275B2, “Selective targeting of procoagulant platelets” (NewSouth Innovations Pty Limited, priority 2014, dated 2020):
Residues, ends and D or L forms follow the SMILES beside them. *: point of attachment. Cbz = O=C(OCc1ccccc1)*; CH2F = FC*

What was measured:
platelets in mouse blood = test: Whole blood assay for procoagulant platelet potential, mouse blood; assay type: cell-based; conditions: thrombin 2 U/mL, CRP 500 ng/mL; n=3 C57Bl6 bloods
Description: FIG. 14. Assay for procoagulant platelet potential in mouse blood. […] Bars and errors are mean±SEM of n=3 C57B16 bloods. One-way ANOVA. **, p<0.01; ****, p<0.0001.
(§1) Blood from healthy human volunteers was drawn from an antecubital fossa vein using a 21-gauge needle into evacuated sterile collection tubes containing 0.109 M sodium citrate. Following no or minimal tourniquet application, the initial 2 mL of blood was discarded to avoid pre-analytical activation of platelets. The tube was gently mixed by inversion six times. Murine blood samples were collected by cardiac puncture under isoflurane anesthesia. Following midline abdominal and bilateral subcostal surgical incisions to expose the heart, blood was drawn from the left ventricle through a 25G needle into a 1 mL syringe containing sodium citrate (0.109 M) resulting in a blood to citrate ratio of 9:1. The needle was removed and the blood was gently expelled from the syringe into a sterile microcentrifuge tube and mixed gently by pipetting up and down 5 times.
Following collection, tubes were kept upright at room temperature and blood was assayed within 15 min of collection. […]
(§2) Fixed cells were analyzed by flow cytometry 1 to 3 h after fixation at an average event rate of 2000 events per sec in an LSRFortessa flow cytometer, equipped with either four (405 nm, 488 nm, 561 nm and 640 nm) or five (395 nm) lasers (BD Biosciences). […]

washed human platelets [1] = test: GSAO-AF647 labelling and P-selectin exposure of washed platelets (flow cytometry); assay type: cell-based; conditions: thrombin 0.1 units/mL, collagen 5 μg/mL
Description: FIG. 1. GSAO labels a subpopulation of activated platelets. A. Structure of GSAO and site of conjugation of AF647, Oregon Green or biotin. B. Washed human platelets were stimulated with calcium ionophore (1 μM) and activation and plasma membrane compromise measured by flow cytometry. […] C. […] E. Washed human platelets were stimulated with collagen or collagen-related peptide and co-labeling with P-selectin and GSAO-AF647 measured by flow cytometry.
Calcium ionophore treatment of platelets leads to a sustained rise in intracellular calcium and surface elaboration of phosphatidylserine, which are features of both the procoagulant and necrotic phenotype (Bevers et al., 1982). Washed human platelets were treated with calcium ionophore and labeled with GSAO-AF647 and an antibody against the α-granule marker, P-selectin.
To determine whether GSAO labeling reflects this agonist profile, washed human platelets were stimulated with thrombin, collagen, or both thrombin and collagen. […] To determine if signalling through the collagen receptor, GPVI, was sufficient to generate the GSAO+ phenotype, the maximal proportion of GSAO+ platelets generated by collagen was compared with the GPVI specific activator, collagen related peptide.
The relationship between the activated and procoagulant phenotype of platelets remains controversial (Dale et al., 2002; Abaeva et al., 2013). Procoagulant platelets are characterised by presence of phosphatidylserine on the platelet surface, surface binding of plasma derived activated clotting factors, ability to generate thrombin and promotion of fibrin formation. Regardless of the agonist stimulus, 100% of GSAO+ platelets were positive for α-granule P-selectin, which implies that α-granule release is a prerequisite for GSAO labeling after agonist stimulation (FIG. 1). […] Of note, a subpopulation of GSAO− platelets also bound annexin V so platelet necrosis is not required for exposure of phosphatidylserine.

stimulated platelets = test: Kinetics of GSAO-AF647 labelling by time lapse flow cytometry; assay type: cell-based, human
Description: (§3) FIG. 2. GSAO rapidly enters the activated platelet subpopulation via an organic anion-transporting polypeptide. A. The kinetics of labeling of stimulated platelets with GSAO-AF647 was measured by time lapse flow cytometry. Flow plots are representative of n≥3 separate experiments, and bars and data points are from n≥3 separate experiments. *p<0.05, ****p<0.0001. B-C. […] DIDS inhibited GSAO labelling of P-selectin+ activated platelets at a half-maximal concentration of ˜30 μM. The data points and errors are the mean±range of 1-5 experiments.
The rate of GSAO+ platelet generation after agonist exposure was measured using time lapse flow cytometry. Results are reported for GSAO+ events based on lead in time prior to agonist exposure threshold.

[2] = test system: platelets in human whole blood; test: Whole blood assay for procoagulant platelet potential, human blood; assay type: cell-based; conditions: for proportion of procoagulant platelets (GSAO+/P-selectin+): thrombin 2 U/mL, collagen 10 μg/mL, mean±SEM, 16-35 donors
Description: FIG. 12. Gating strategy for detection of procoagulant platelets in human whole blood. A. Platelets were identified as CD41a positive and CD45 negative events. B. Threshold values for P-selectin and GSAO fluorescence were set using agonist stimulated sample stained with control IgG isotype and GSCA respectively. C. At rest, very few platelets show the procoagulant phenotype (P-selectin+/GSAO+).
FIG. 13. Assay for procoagulant platelet potential in human blood. […] The maximal response (17.3±1.3%) was observed after stimulation with combination of thrombin and collagen. Results are mean±SEM from 16-35 donors. One-way ANOVA, […], Holm-Sidak multiple comparisons correction. *, p<0.05; ****, p<0.0001.
as §1
Following collection, tubes were kept upright at room temperature and blood was assayed within 15 min of collection. Incubation and staining steps were performed in a sterile 96-well polypropylene plate. […]
as §2

washed human platelets [3] = test: ABT-737 induced platelet apoptosis and pancaspase inhibition (flow cytometry); assay type: cell-based
Description: FIG. 4. Labeling with GSAO and exposure of P-selectin distinguishes necrotic from apoptotic platelets. […] The percentage of GSAO+ platelets are graphed with respect to P-selectin exposure. C. Washed human platelets were preincubated with 200 μM of ZVADFMK or vehicle control for 15 min then incubated with 30 μM of ABT-737 for 2 h (part F), or stimulated with thrombin (0.1 units/mL) and collagen (5 μg/mL) for 10 min (part G). Labeling with GSAO-AF647 and exposure of P-selection was measured by flow cytometry. D. Washed human platelets from healthy donors (n=5-11) were untreated or stimulated with thrombin (0.1 units/mL), collagen (5 μg/mL), or thrombin (0.1 units/mL) and collagen (5 μg/mL) for 10 min. […] The error bars are mean±SD.
Bcl-XL dependent apoptosis is involved in regulation of platelet life span, although the role of platelet apoptosis in thrombosis is controversial. In order to determine if GSAO can differentiate agonist-induced necrotic versus apoptotic platelets, platelet apoptosis was triggered using the BH3 mimetic ABT-737. GSAO labelled P-selectin negative apoptotic platelets (FIGS. 4A and B). The GSAO+ population also labeled with a polycaspase marker and annexin V, both indicators of apoptotic cells. […] Washed platelets from healthy donors were untreated or stimulated with thrombin, collagen or thrombin and collagen and examined for apoptosis (GSAO+/P-selectin−) and necrosis (GSAO+/P-selectin+) (FIG. 4D). These agonists trigger platelet necrosis but not apoptosis.

[4] = test system: P-selectin+ activated platelets; test: DIDS effect on GSAO-AF647 labelling of agonist-stimulated platelets (flow cytometry); assay type: cell-based, human; conditions: thrombin (0.1 units/mL) and collagen (5 μg/mL); 0-200 μM DIDS for 10 min; read-out: half-maximal concentration for inhibition of GSAO labelling of P-selectin+ activated platelets
Description: as §3
The organic anion-transporting polypeptide (OATP) family has been implicated in transport across the plasma membrane of organic anions in the same class as GSAO (Dilda et al., 2009; Dilda et al., 2008). Nine members of the OATP family have been reported in humans (Hagenbuch et al., 2003) and platelets express OATP2B1 (Niessen et al., 2009). DIDS is an inhibitor of OATP class B transporters (Kobayashi et al. 2003) and the present inventors tested its effect on GSAO labelling of agonist-stimulated platelets. DIDS inhibited GSAO labelling of P-selectin+ activated platelets (FIG. 2B) at a half-maximal concentration of ˜30 μM (FIG. 2C). GSAO is retained in the platelet cytoplasm through covalent reaction with closely-spaced protein cysteine thiols (Park et al., 2011) (data not shown).

washed human platelets [5] = test: Direct mitochondrial membrane depolarization and GSAO labelling; assay type: cell-based; conditions: CCCP 4 μM
Description: FIG. 9. Mitochondrial membrane disruption is not sufficient for GSAO labeling.
The cyclophilin D-dependent regulated necrosis pathway is characterized by agonist stimulation, raised intracellular calcium, formation of the mitochondrial transition pore and loss of mitochondrial membrane potential. Dual agonist stimulation of platelets results in loss of mitochondrial transmembrane potential (FIG. 5A). The onset of mitochondrial depolarisation (FIG. 5B) and phosphatidylserine exposure (FIG. 5C) are coincident with GSAO labeling.
Mitochondrial membrane potential was measured using the JC-1 cationic dye (5,5′,6,6′-tetrachloro-1,1′,3,3′-tetraethyl-imidacarbocyanine iodide, Sigma) (Life Technologies). Washed platelets were incubated with JC-1 (2 μM) for 30 min in the dark at 37° C., washed once and analyzed immediately on a BDFACS Canto II. On some occasions, washed platelets were incubated with the mitochondrial membrane disrupter 2-[2-(3-chlorophenyl)hydrazinylyidene]propanedinitrile (CCCP, 4 μM) for 10 min.

washed human platelets [6] = test: GSAO-AF647 labelling of thrombin and collagen stimulated platelets after preincubation; assay type: cell-based; conditions: CaCl2 preincubation 15 min
Description: FIG. 5. […] A. Washed human platelets were untreated or stimulated with thrombin (0.1 units/mL) and collagen (5 μg/mL) or the mitochondrial membrane disrupter CCCP (4 μM). Mitochondrial transmembrane potential was measured using the cationic dye, JC-1. The ratio of distribution of JC-1 between the mitochondria (red fluorescence) and cytosol (green fluorescence) reflects mitochondrial transmembrane potential. […] B-C. […] E. Washed human platelets were preincubated with CaCl2 for 15 min and then untreated or stimulated with thrombin (0.1 units/mL) and collagen (5 μg/mL).

collagen related peptide
potency as inducer of murine procoagulant platelets (platelets in mouse blood): significantly less potent than thrombin but synergizes with thrombin | GSAO+ platelets generated by agonist (washed human platelets [1]): majority of the collagen effect was recapitulated

thrombin
potency as inducer of murine procoagulant platelets (platelets in mouse blood): most potent inducer | time course of GSAO labeling after agonist (stimulated platelets): little GSAO labeling compared with unstimulated platelets | potency as inducer of procoagulant platelets in human blood [2]: most potent inducer | proportion of procoagulant platelets (GSAO+/P-selectin+) [2]: 13.2±1.1% | GSAO+ platelets generated by agonist (washed human platelets [1]): minimal GSAO+ platelets

CN(C)CC[C@H](CSc1ccccc1)Nc1ccc(S(=O)(=O)NC(=O)c2ccc(N3CCN(Cc4ccccc4-c4ccc(Cl)cc4)CC3)cc2)cc1[N+](=O)[O-] [ABT-737]
platelet phenotype induced (washed human platelets [3]; ABT-737 for 2 h): induced GSAO+/P-selectin− platelets

collagen
time course of GSAO labeling after agonist (stimulated platelets): gradual increase in GSAO labeling over 60 sec | proportion of procoagulant platelets (GSAO+/P-selectin+) [2]: 1.2±0.2% | GSAO+ platelets generated by agonist (washed human platelets [1]): moderate proportion

O=S(=O)(O)c1cc(N=C=S)ccc1C=Cc1ccc(N=C=S)cc1S(=O)(=O)O [DIDS]
IC50 [4]: ~30 µM

N#CC(C#N)=NNc1cccc(Cl)c1 [CCCP, 2-[2-(3-chlorophenyl)hydrazinylyidene]propanedinitrile]
GSAO labelling after direct mitochondrial membrane depolarization (washed human platelets [5]): does not result in GSAO labelling

COC(=O)C[C@H](NC(=O)[C@H](C)NC(=O)[C@@H](NC(=O)OCc1ccccc1)C(C)C)C(=O)CF [ZVADFMK] (Cbz-Val-Ala-Asp(OMe)-CH2F)
effect on ABT-737 induced GSAO+/P-selectin− platelets (washed human platelets [3]; 200 μM ZVADFMK 15 min, then 30 μM ABT-737 2 h): reduced | effect on GSAO labeling of thrombin and collagen stimulated platelets (washed human platelets [3]; 200 μM ZVADFMK 15 min, then agonists 10 min): no effect

[Ca] [calcium]
effect of added calcium on GSAO+ agonist stimulated platelets (washed human platelets [6]): promoted
